# Experimental data reported in article PMC10219169, “Thiopurines Analogues with Additional Ring: Synthesis, Spectroscopic Properties, and Anticancer Potency” (International Journal of Molecular Sciences, 2023).
# Where two headings read alike, the source gives them in different places.
# Legend:
# [1] = n-octanol/phosphate buffer pH 7.4 partition coefficient (lipophilicity determination); type: physicochemical; details: 1-octanol/phosphate buffer pH 7.4, read-out: Experimental log Po/w (pH 7.4)
# Experimental: The key parameter in drug design and one of the most important properties for all the pharmacokinetic rules is the octanol/water partition coefficient, log Po/w. It is defined as the partition coefficient ratio of a compound between the hydrophobic and hydrophilic phases and corresponds to lipophilicity, which describes drug interactions with membranes and the possibility of their transport across the membrane into the cell. The values of log Po/w were determined experimentally for all the tested compounds and compared with the values theoretically estimated on the SwissADME [23] webserver.
# The partition coefficients of the tested compounds were determined for n-octanol/phosphate buffer pH 7.4 at 25 °C and 37 °C. The initial concentrations of the compounds (1.0 × 10^−5 M and 2.0 × 10^−5 M) were measured spectrophotometrically, according to the Beer–Lambert law. The absorbances were recorded at λmax of the appropriate compound against a suitable phosphate buffer blank. A quantity of 1 mL of the solution of the tested compound in the phosphate buffer at pH 7.4 and 1 mL of n-octanol were placed in 2 mL Eppendorf tubes. The samples were shaken manually (2 min), vortexed (5 min), and incubated for 5 h at 25 °C or 37 °C. Then, the tubes were centrifuged (2 min, 10,000 rpm). Both layers were carefully separated, and the absorbances were measured for the aqueous layers at a suitable λmax against the blank of the phosphate buffer at a suitable pH. The given logPo/w values are the mean of three independent experiments (one experiment: 3 samples for 2 concentrations of each compound).
# HeLa cells = assay: CellTiter-Glo cell viability assay (24 h), HeLa; type: cell-based, human; details: for IC50: CellTiter-Glo; for reduction of HeLa cell viability: c = 80 μM; for selectivity index (SI): SI = IC50 normal cell (NIH/3T3) / IC50 cancerous cell (HeLa)
# Experimental: (§1) The compounds in this work were tested for their in vitro inhibitory effect on the viability of the HeLa (cancerous) cell line using the CellTiter-Glo® 2.0 cell viability assay (24 h). In addition, the mouse fibroblast NIH/3T3 cell line was used to assess the effects of the compounds on healthy normal cells. […] The 6TG was used as a standard in all tests conducted. The graph of percentage cell viability (y axis) against concentrations of the tested compounds (x axis) and concentration-viability curves with IC50 values from dose-response studies are presented in Figure 4 and Figure 5, respectively.
# (§2) The cytotoxicity of the synthesized compounds was tested using cell lines of cervical cancer (HeLa) and mouse fibroblasts (NIH/3T3). Both cell lines were cultured in Dulbecco′s Modified Eagle′s medium (31053, Sigma-Aldrich-Gibco, Thermo Fisher Scientific, Waltham, MA, USA) supplemented with 10% fetal bovine serum (Biowest, Nuaillé, France), 1% Glutamax (Thermo Fisher Scientific, Waltham, MA, USA), and 1% Antibiotic-Antimycotic (Biowest) under standard culture conditions (95% humidity, 5% CO2, at 37 °C). For the purpose of cytotoxicity assays, cells (from both cell lines) were seeded at a density of ca. 5000 cells/well on a 96-well microplate (white, flat bottom), in 4 replicates. 6-Me-TEGuo, 6-Me-TEGua, TEGuo, TEGua, and 6-Me-TEG were tested for their potential cytotoxicity using the following concentrations: 160 (except 6-Me-TEG), 80, 40, 20, 10, 5, and 2.5 μM. Additionally, 6-thioguanine (6TG) in concentrations of 10, 7.5, 5, 2.5, 1.25, and 0.625 μM was tested. All assays included non-treated cells and cells treated with 10% DMSO as negative and positive controls, respectively. The cells were incubated for 24 h under standard culture conditions. Cytotoxicity was measured as cell viability with the CellTiter-Glo® Luminescent Cell Viability Assay (Promega, Madison, WI, USA) according to the manufacturer’s protocol. The microplate luminescence was measured using an Infinite® 200 PRO plate reader (Tecan, Männedorf, Switzerland). Then, the average luminescence of non-labeled cells was equated to 100%, and the remaining values were proportionally normalized. The IC50 values were calculated from the fitting curves using Origin 2022.
# NIH/3T3 cells = assay: CellTiter-Glo cell viability assay (24 h), NIH/3T3; type: cell-based; details: Mus musculus, NIH3T3, NIH/3T3, 24 h
# Experimental: as §1, §2
# [2] = pKa determination by spectrophotometric method; type: physicochemical; details: for fraction existing in ionic form: at physiological pH (7.32–7.42); for pKa: spectrophotometric method, buffer solutions of different pH
# Experimental: The synthesized compounds, due to their structure, can be hydrogen donors as well as acceptors. Depending on the pH, they can exist in protonated or deprotonated forms. In order to establish which form of the new tricyclic thiopurine derivatives is favored at neutral pH (the conditions under which the in vitro tests will be carried out), their pKa values were determined by spectrophotometric methods (see Table 1 and the Experimental Section). […] This means that at physiological pH (7.32–7.42), about 6% of TEGuo/TEGua exist in ionic form, while 6-Me-TEGuo/6-Me-TEGua only about 4%.
# UV-vis absorption spectra were recorded using a Cary 100 spectrophotometer scanning from 800 to 200 nm with 1 nm increments in 1 cm × 1 cm quartz cells. Emission spectra were taken in 1 cm × 1 cm quartz cells on a JASCO FP–8300 spectrofluorometer (excitation and emission slits 5 nm, scan speed 500 nm min^−1) for solutions with absorbance at the excitation wavelength less than 0.1. The fluorescence quantum yields were determined using 10-methylacridinium cation in water (Φ = 1.0) as a standard. The dissociation constants were determined by the spectrophotometric method: in a first step, buffer solutions of different pH were prepared. The pH of solutions was determined by a Mettler Toledo F20 FiveEasy pH meter equipped with a pH electrode LE438 3 in 1 (Mettler Toledo). In the second step, equal volumes of a substance dissolved in water (10 μL) were added to the buffer solution (3 mL). The spectra were recorded with 1 nm resolution over the range from 220 to 550 nm to obtain different spectra around the maximum λ for each compound studied. The purity of all samples was monitored by an HPLC method. HPLC measurements were performed using an Agilent 1200 Rapid Resolution UHPLC system equipped with a reversed-phase column (Eclipse Plus C18, […], 4.6 × 250 mm). A gradient of acetonitrile in water was used as an eluent. The water was doubly distilled and purified using a Milli-Q system (Millipore, Bedford, MA, USA). The fluorescence lifetime measurements were recorded using a Fluorescence Lifetime Spectrometer (FluoTime 300 from PicoQuant) with a time-correlated single-photon counting detection system equipped with a 378 nm laser as its excitation source. All experiments were carried out in a standard quartz cell (1 cm × 1 cm).
# [3] = pKa* of singlet excited state from pH-dependent fluorescence emission; type: physicochemical; details: determined from emission from the singlet excited state
# Experimental: At pH 4.0, as was the case for the absorbance at 352 nm, the intensity and shape of the fluorescence signal were similar to those observed in water solution for all the compounds tested. However, in the case of basic pH, a two-fold increase in the emission intensity and a blueshift of the emission maximum were observed.
# UV-vis absorption spectra were recorded using a Cary 100 spectrophotometer scanning from 800 to 200 nm with 1 nm increments in 1 cm × 1 cm quartz cells. Emission spectra were taken in 1 cm × 1 cm quartz cells on a JASCO FP–8300 spectrofluorometer (excitation and emission slits 5 nm, scan speed 500 nm min^−1) for solutions with absorbance at the excitation wavelength less than 0.1. The fluorescence quantum yields were determined using 10-methylacridinium cation in water (Φ = 1.0) as a standard. The dissociation constants were determined by the spectrophotometric method: in a first step, buffer solutions of different pH were prepared. The pH of solutions was determined by a Mettler Toledo F20 FiveEasy pH meter equipped with a pH electrode LE438 3 in 1 (Mettler Toledo). […] The spectra were recorded with 1 nm resolution over the range from 220 to 550 nm to obtain different spectra around the maximum λ for each compound studied. The purity of all samples was monitored by an HPLC method. […]
# [4] = n-octanol/phosphate buffer pH 7.4, pH 7.4, 25 °C
# [5] = n-octanol/phosphate buffer pH 7.4, pH 7.4, 37 °C
SMILES,"logP at 5 h [1, 4]","logP at 5 h [1, 5]","effect on HeLa cell viability (HeLa cells; HeLa, concentration range 2.5 μM to 80 μM, 24 h)",IC50 (NIH/3T3 cells) [µM],"IC50 (HeLa cells; HeLa, 24 h) [µM]","reduction of HeLa cell viability (HeLa cells; HeLa, 24 h)","IC50 (HeLa cells; Homo sapiens, HeLa, 24 h) [µM]",fraction existing in ionic form [2],pKa [2],pKa* (singlet excited state) [3],selectivity index (SI) (HeLa cells)
"CC(=O)OC[C@H]1O[C@@H](n2cnc3c(=S)n4cc(C)[nH]c4nc32)[C@H](OC(C)=O)[C@@H]1OC(C)=O [6-Me-TEG, 2′,3′,5′-tri-O-acetyl-6-methyl-9-thio-1,N^2-ethenoguanosine]",0.8,0.75,no effect on HeLa cell viability was observed,,,,,,,,
"Cc1cn2c(=S)c3nc[nH]c3nc2[nH]1 [6-Me-TEGua, 6-methyl-9-thio-1,N^2-ethenoguanine]",0.75,0.7,,51.6,< 100,up to 57%,78.2,about 4%,8.8,,
"Cc1cn2c(=S)c3ncn([C@@H]4O[C@H](CO)[C@@H](O)[C@H]4O)c3nc2[nH]1 [6-Me-TEGuo, 6-methyl-9-thio-1,N^2-ethenoguanosine]",-0.61,-0.67,,63.8,< 100,up to 42%,55.8,about 4%,8.8,8.9,> 1
"Nc1nc2nc[nH]c2c(=S)[nH]1 [6TG, 6-thioguanine, reference compound]",,,,,,,,,,,> 1
"S=c1c2nc[nH]c2nc2[nH]ccn12 [TEGua, 9-thio-1,N^2-ethenoguanine]",0.58,0.52,,97.9,,,137,about 6%,8.6,,
"OC[C@H]1O[C@@H](n2cnc3c(=S)n4cc[nH]c4nc32)[C@H](O)[C@@H]1O [TEGuo, 9-thio-1,N^2-ethenoguanosine]",-0.89,-0.96,,83.6,< 100,,80.2,about 6%,8.6,8.7,> 1
